Data taken from patent publication US20250332178A1, “METHODS OF TREATING MYCOBACTERIAL INFECTIONS USING TETRACYCLINE COMPOUNDS” (priority 2018, published 2025).
≈ marks a conversion by molar mass, not a printed value.

Key:
[1] = system: rapid-growing mycobacteria (RGM) isolates; test: MIC (CLSI broth dilution), all RGM isolates; type: cell-based, nontuberculous mycobacteria; settings: all 50 RGM isolates
M. mucogenium group = test: MIC (CLSI broth dilution), RGM isolates; type: cell-based
M. chelonae = test: MIC (CLSI broth dilution), RGM isolates; type: cell-based
Mycobacterium chelonae = test: MIC by broth microdilution in CAMHB, clinical isolates; type: cell-based
Description: (§1) A total of 24 clinical isolates of Mycobacterium abscessus, 22 clinical isolates of Mycobacterium chelonae and 20 clinical isolates of Mycobacterium fortuitum were tested in the study. The study also used the antibiotics tigecycline, doxycycline and amikacin for comparison purposes. […] Amikacin was dissolved in DMSO prior to freezing at −20° C. For susceptibility testing, stock solutions of antibiotic compounds were serially diluted in 50 μL of cation adjusted Mueller-Hinton broth (CAMHB) in polystryrene 96-well round-bottom microtiter plates. To each well, 50 μL of the appropriate mycobacterial cell suspension was added to yield a final concentration of about 1×10^5 CFU/mL. The inoculum used for each isolate was measured by titration in saline with Tween 80 and plating on MH agar. The Mycobacterium abscessus and Mycobacterium fortuitum titer plates were incubated at 37° C. in ambient air for 3-4 days and 5-7 days, respectively. The Mycobacterium chelonae titer plates were incubated at 30° C. in ambient air for 3-5 days. Each isolate was tested at least in duplicate. The MIC was defined as the lowest concentration of antimicrobial agent yielding no visible turbidity.

Mycobacterium abscessus = test: as above; type: cell-based
Description: as §1

Mycobacterium fortuitum = test: as above; type: cell-based
Description: as §1

M. immunogenum group = test: MIC (CLSI broth dilution), RGM isolates; type: cell-based; settings: M. immunogenum
M. abscessus complex = test: MIC (CLSI broth dilution), RGM isolates; type: cell-based
M. fortuitum group = test: MIC (CLSI broth dilution), RGM isolates; type: cell-based
M. smegmatis group = test: MIC (CLSI broth dilution), RGM isolates; type: cell-based
[2] = 24 clinical isolates (tigecycline: subset N=14)

C[C@H]1c2cccc(O)c2C(=O)C2=C(O)[C@]3(O)C(=O)C(C(N)=O)=C(O)[C@@H](N(C)C)[C@@H]3[C@@H](O)[C@@H]21 [Doxycycline, doxycycline]
MIC50 [1]: >8 µg/mL
MIC90 [1]: >8 µg/mL
MIC (M. mucogenium group; isolate 39, M. mucogenicum group, M. mucogenicum): 0.25 µg/mL (≈ 0.563 µM)
MIC (M. mucogenium group; isolate 40, M. mucogenicum group, M. mucogenicum): ≤0.12 µg/mL
MIC (M. mucogenium group; isolate 41, M. mucogenicum group, M. mucogenicum): ≤0.12 µg/mL
MIC (M. mucogenium group; isolate 42, M. mucogenicum group, M. mucogenicum): ≤0.12 µg/mL
MIC (M. mucogenium group; isolate 43, M. mucogenicum group, M. phocaicum): ≤0.12 µg/mL
MIC (M. mucogenium group; isolate 44, M. mucogenicum group, M. phocaicum): >8 µg/mL
MIC (M. mucogenium group; isolate 45, M. mucogenicum group, M. phocaicum): >8 µg/mL
MIC (M. mucogenium group; isolate 46, M. mucogenicum group, M. phocaicum): >8 µg/mL
MIC (M. mucogenium group; isolate 47, M. mucogenicum group, M. phocaicum): 0.25 µg/mL (≈ 0.563 µM)
MIC (M. mucogenium group; isolate 48, M. mucogenicum group, M. phocaicum): 4 µg/mL (≈ 9 µM)
MIC (M. chelonae; isolate 18, M. chelonae): >8 µg/mL
MIC (M. chelonae; isolate 19, M. chelonae): >8 µg/mL
MIC (M. chelonae; isolate 20, M. chelonae): >8 µg/mL
MIC (M. chelonae; isolate 21, M. chelonae): >8 µg/mL
MIC (M. chelonae; isolate 22, M. chelonae): >8 µg/mL
MIC50 (Mycobacterium chelonae; 22 clinical isolates): 32 µg/mL (≈ 72 µM)
MIC90 (Mycobacterium chelonae; 22 clinical isolates): 64 µg/mL (≈ 144 µM)
MIC (Mycobacterium chelonae; isolate No. 1, MC 7323): 64 µg/mL (≈ 144 µM)
MIC (Mycobacterium chelonae; isolate No. 2, MC 7534): 32 µg/mL (≈ 72 µM)
MIC (Mycobacterium chelonae; isolate No. 3, MC 7368): 64 µg/mL (≈ 144 µM)
MIC (Mycobacterium chelonae; isolate No. 4, MC 7514): 32 µg/mL (≈ 72 µM)
MIC (Mycobacterium chelonae; isolate No. 5, MC 7584): 64 µg/mL (≈ 144 µM)
MIC (Mycobacterium chelonae; isolate No. 6, MC 7192): 16 µg/mL (≈ 36 µM)
MIC (Mycobacterium chelonae; isolate No. 7, MC 7466): 32 µg/mL (≈ 72 µM)
MIC (Mycobacterium chelonae; isolate No. 8, MC 7533): 64 µg/mL (≈ 144 µM)
MIC (Mycobacterium chelonae; isolate No. 9, MC 7579): 16 µg/mL (≈ 36 µM)
MIC (Mycobacterium chelonae; isolate No. 10, MC 7614): 64 µg/mL (≈ 144 µM)
MIC (Mycobacterium chelonae; isolate No. 11, MC 7414): 32 µg/mL (≈ 72 µM)
MIC (Mycobacterium chelonae; isolate No. 12, MC 7313): 32 µg/mL (≈ 72 µM)
MIC (Mycobacterium chelonae; isolate No. 13, MC 7281): 64 µg/mL (≈ 144 µM)
MIC (Mycobacterium chelonae; isolate No. 14, MC 7328): 16 µg/mL (≈ 36 µM)
MIC (Mycobacterium chelonae; isolate No. 15, MC 7294): 32 µg/mL (≈ 72 µM)
MIC (Mycobacterium chelonae; isolate No. 16, MC 14-S-03): 64 µg/mL (≈ 144 µM)
MIC (Mycobacterium chelonae; isolate No. 17, MC 14-S-04): 32 µg/mL (≈ 72 µM)
MIC (Mycobacterium chelonae; isolate No. 18, MC 14-S-05): 32 µg/mL (≈ 72 µM)
MIC (Mycobacterium chelonae; isolate No. 19, MC 14-S-06): 64 µg/mL (≈ 144 µM)
MIC (Mycobacterium chelonae; isolate No. 20, MC 14-S-07): 32 µg/mL (≈ 72 µM)
MIC (Mycobacterium chelonae; isolate No. 21, MC 35757): 32 µg/mL (≈ 72 µM)
MIC (Mycobacterium chelonae; isolate No. 22, MC 7302): 64 µg/mL (≈ 144 µM)
MIC50 (Mycobacterium abscessus; [2]): >64 µg/mL
MIC90 (Mycobacterium abscessus; [2]): >64 µg/mL
MIC (Mycobacterium abscessus; isolate No. 1, BB2): >64 µg/mL
MIC (Mycobacterium abscessus; isolate No. 2, BB4): 2 µg/mL (≈ 4.5 µM)
MIC (Mycobacterium abscessus; isolate No. 3, 5922): 16 µg/mL (≈ 36 µM)
MIC (Mycobacterium abscessus; isolate No. 4, BB3): 4 µg/mL (≈ 9 µM)
MIC (Mycobacterium abscessus; isolate No. 5, BB6): 16 µg/mL (≈ 36 µM)
MIC (Mycobacterium abscessus; isolate No. 6, 5908): >64 µg/mL
MIC (Mycobacterium abscessus; isolate No. 7, BB7): 0.25 µg/mL (≈ 0.563 µM)
MIC (Mycobacterium abscessus; isolate No. 8, 6031): 2 µg/mL (≈ 4.5 µM)
MIC (Mycobacterium abscessus; isolate No. 9, 5785): 2 µg/mL (≈ 4.5 µM)
MIC (Mycobacterium abscessus; isolate No. 10, BB8): >64 µg/mL
MIC (Mycobacterium abscessus; isolate No. 11, 6111): >64 µg/mL
MIC (Mycobacterium abscessus; isolate No. 12, 6005): >64 µg/mL
MIC (Mycobacterium abscessus; isolate No. 13, 5605): >64 µg/mL
MIC (Mycobacterium abscessus; isolate No. 14, 5931): 16 µg/mL (≈ 36 µM)
MIC (Mycobacterium abscessus; isolate No. 15, BB1): >64 µg/mL
MIC (Mycobacterium abscessus; isolate No. 16, BB5): >64 µg/mL
MIC (Mycobacterium abscessus; isolate No. 17, 5812): >64 µg/mL
MIC (Mycobacterium abscessus; isolate No. 18, 5901): >64 µg/mL
MIC (Mycobacterium abscessus; isolate No. 19, 5960): 8 µg/mL (≈ 18 µM)
MIC (Mycobacterium abscessus; isolate No. 20, 6142): >64 µg/mL
MIC (Mycobacterium abscessus; isolate No. 21, 5922): 32 µg/mL (≈ 72 µM)
MIC (Mycobacterium abscessus; isolate No. 22, LT 949): >64 µg/mL
MIC (Mycobacterium abscessus; isolate No. 23, 6025): >64 µg/mL
MIC (Mycobacterium abscessus; isolate No. 24, 6153): >64 µg/mL
MIC50 (Mycobacterium fortuitum; 20 clinical isolates): 8 µg/mL (≈ 18 µM)
MIC90 (Mycobacterium fortuitum; 20 clinical isolates): 64 µg/mL (≈ 144 µM)
MIC (Mycobacterium fortuitum; isolate No. 1, 3349): 16 µg/mL (≈ 36 µM)
MIC (Mycobacterium fortuitum; isolate No. 2, 3499): 0.06 µg/mL (≈ 0.135 µM)
MIC (Mycobacterium fortuitum; isolate No. 3, 2797): >64 µg/mL
MIC (Mycobacterium fortuitum; isolate No. 4, 32): 0.125 µg/mL (≈ 0.281 µM)
MIC (Mycobacterium fortuitum; isolate No. 5, 33): 0.125 µg/mL (≈ 0.281 µM)
MIC (Mycobacterium fortuitum; isolate No. 6, 3489): 8 µg/mL (≈ 18 µM)
MIC (Mycobacterium fortuitum; isolate No. 7, 3491): <0.06 µg/mL
MIC (Mycobacterium fortuitum; isolate No. 8, 54): <0.06 µg/mL
MIC (Mycobacterium fortuitum; isolate No. 9, 38): 0.5 µg/mL (≈ 1.13 µM)
MIC (Mycobacterium fortuitum; isolate No. 10, 36): 0.125 µg/mL (≈ 0.281 µM)
MIC (Mycobacterium fortuitum; isolate No. 11, 3480): 16 µg/mL (≈ 36 µM)
MIC (Mycobacterium fortuitum; isolate No. 12, 3126): 16 µg/mL (≈ 36 µM)
MIC (Mycobacterium fortuitum; isolate No. 13, 3579): 16 µg/mL (≈ 36 µM)
MIC (Mycobacterium fortuitum; isolate No. 14, 7484): 64 µg/mL (≈ 144 µM)
MIC (Mycobacterium fortuitum; isolate No. 15, 3488): 32 µg/mL (≈ 72 µM)
MIC (Mycobacterium fortuitum; isolate No. 16, 3276): 0.25 µg/mL (≈ 0.563 µM)
MIC (Mycobacterium fortuitum; isolate No. 17, 3442): 0.25 µg/mL (≈ 0.563 µM)
MIC (Mycobacterium fortuitum; isolate No. 18, 3316): 32 µg/mL (≈ 72 µM)
MIC (Mycobacterium fortuitum; isolate No. 19, 3490): 16 µg/mL (≈ 36 µM)
MIC (Mycobacterium fortuitum; isolate No. 20, 2491): >64 µg/mL
MIC (M. immunogenum group; isolate 35, M. immunogenum group): >8 µg/mL
MIC (M. immunogenum group; isolate 36, M. immunogenum group): 1 µg/mL (≈ 2.25 µM)
MIC (M. immunogenum group; isolate 37, M. immunogenum group): >8 µg/mL
MIC (M. immunogenum group; isolate 38, M. immunogenum group): >8 µg/mL
MIC (M. abscessus complex; isolate 1, M. abscessus complex, erm gene type MAB30): >8 µg/mL
MIC (M. abscessus complex; isolate 2, M. abscessus complex, erm gene type MAB30): >8 µg/mL
MIC (M. abscessus complex; isolate 3, M. abscessus complex, erm gene type MAB30): >8 µg/mL
MIC (M. abscessus complex; isolate 4, M. abscessus complex, erm gene type massiliense): >8 µg/mL
MIC (M. abscessus complex; isolate 5, M. abscessus complex, erm gene type massiliense/subsp. abs hybrid): >8 µg/mL
MIC (M. abscessus complex; isolate 6, M. abscessus complex, erm gene type Type 1 abscessus): >8 µg/mL
MIC (M. abscessus complex; isolate 7, M. abscessus complex, erm gene type Type 1 abscessus): >8 µg/mL
MIC (M. abscessus complex; isolate 8, M. abscessus complex, erm gene type Type 1 abscessus): >8 µg/mL
MIC (M. abscessus complex; isolate 9, M. abscessus complex, erm gene type Type 1 abscessus): >8 µg/mL
MIC (M. abscessus complex; isolate 10, M. abscessus complex, erm gene type Type 1 abscessus): >8 µg/mL
MIC (M. abscessus complex; isolate 11, M. abscessus complex, erm gene type Type 6 abscessus): >8 µg/mL
MIC (M. abscessus complex; isolate 12, M. abscessus complex, erm gene type Type 6 abscessus): >8 µg/mL
MIC (M. abscessus complex; isolate 13, M. abscessus complex, erm gene type Type 6 abscessus): >8 µg/mL
MIC (M. abscessus complex; isolate 14, M. abscessus complex, erm gene type Type 6 abscessus): 8 µg/mL (≈ 18 µM)
MIC (M. abscessus complex; isolate 15, M. abscessus complex, erm gene type Type 7 abscessus): >8 µg/mL
MIC (M. abscessus complex; isolate 16, M. abscessus complex, erm gene type Type 7 abscessus): >8 µg/mL
MIC (M. abscessus complex; isolate 17, M. abscessus complex, erm gene type Type 8 abscessus): >8 µg/mL
MIC (M. fortuitum group; isolate 23, M. fortuitum group, M. fortuitum): ≤0.12 µg/mL
MIC (M. fortuitum group; isolate 24, M. fortuitum group, M. fortuitum): 0.25 µg/mL (≈ 0.563 µM)
MIC (M. fortuitum group; isolate 25, M. fortuitum group, M. fortuitum): >8 µg/mL
MIC (M. fortuitum group; isolate 26, M. fortuitum group, M. porcinum): 4 µg/mL (≈ 9 µM)
MIC (M. fortuitum group; isolate 27, M. fortuitum group, M. porcinum): 8 µg/mL (≈ 18 µM)
MIC (M. fortuitum group; isolate 28, M. fortuitum group, M. porcinum/M. boenickei): 2 µg/mL (≈ 4.5 µM)
MIC (M. fortuitum group; isolate 29, M. fortuitum group, M. porcinum/M. boenickei): >8 µg/mL
MIC (M. fortuitum group; isolate 30, M. fortuitum group, M. porcinum/M. boenickei): >8 µg/mL
MIC (M. fortuitum group; isolate 31, M. fortuitum group, M. senegalense): ≤0.12 µg/mL
MIC (M. fortuitum group; isolate 32, M. fortuitum group, M. senegalense): ≤0.12 µg/mL
MIC (M. fortuitum group; isolate 33, M. fortuitum group, M. senegalense): ≤0.12 µg/mL
MIC (M. fortuitum group; isolate 34, M. fortuitum group, M. senegalense): ≤0.12 µg/mL
MIC (M. smegmatis group; isolate 49, M. smegmatis group, M. goodii): ≤0.12 µg/mL
MIC (M. smegmatis group; isolate 50, M. smegmatis group, M. wolinskyi): 1 µg/mL (≈ 2.25 µM)
